What was measured:
[1] = system: GluA2 mRNA / (GluA1+GluA3+GluA4 mRNA); assay: qRT-PCR of AMPAR/NMDAR subunits in hippocampal regions, Ca2+ permeability index; assay type: in vivo, mouse
Method: Hippocampal slices of 17 to 18 week old male C57BL/6J background mice (CD, HFD, and HFD with PER treatment) or 12 to 13 week old ob/ob mice (ob/ob, and ob/ob with PER treatment) were prepared as previously reported (56, 57). After preparing and collecting hippocampal slices, CA1, CA2, CA3, DG, and EC regions were separated from hippocampal slices using a dissection knife from […] background mice and ob/ob mice, respectively. The CA1, CA2, CA3, DG, and EC regions of mice were separated and immediately lysed in disposable homogenization tube BioMasher2 (trademark) (Nippi, Tokyo, Japan) using 0.5 mL of TRIzol RNA isolation reagent (Thermo Fisher Scientific, Wilmington, DE). Total RNA was individually extracted from each region according to the remaining protocol of the TRIzol RNA isolation reagent provided by the manufacturer (Thermo Fisher Scientific, Wilmington, DE). 1 μg of total RNA was reverse transcribed using PrimeScript RT Reagent Kit (Takara, Shiga, Japan). An aliquot of the obtained CDNA was diluted 1:10 and added to a master mix of TB Green Premix ExTaq (Takara, Shiga, Japan), and real-time PCR was performed using a 7500 Fast Real-Time PCR system (Applied Biosystems, Foster City, CA, USA) according to the manufacturer's instructions. The conditions for real-time PCR were as follows. 40 cycles of 95° C. for 30 seconds, then 95° C. for 5 seconds and 60° C. for 34 seconds. The fluorescence intensity was measured for each annealing step and the threshold cycle time was determined using 7500 software. In addition, relative expression levels of β-actin were normalized to respective controls (vehicle group). The relative expression level of the target gene in each sample was determined using a standard curve and further normalized to the expression level of β-actin of the same sample. The sequences of primers and probes for these genes are shown in Supplemental Table 2. The “ratio of GluA2 mRNA amount/(GluA1+GluA3+GluA4 mRNA amount” was used as a Ca^2+ permeability index.
GluA2 is edited at the Q/R site within the reentry M2 membrane loop region by adenosine deaminase (ADAR2), which acts on RNA type 2 involved in editing double-stranded RNA from adenosine (A) to inosine (I) (review, refer to 15, 16 and 17). Attempts were made to determine real-time quantitative reverse transcription polymerase chain reaction (qRT-PCR), subunit composition of AMPAR and NMDAR. Total RNA in hippocampal subregions (CA1, CA3, DG, EC) was separated, and quantitative analysis of mRNA of GluA1, GluA2, GluA3, and GluA4 for AMPAR, and GluN1, GluN2A, GluN2B, and GluN2C for NMDAR was performed by qRT-PCR. […] Based on the mRNA amount of each subunit, the ratio of GluA2 to other GluA subunits (FIG. 2B) was determined. The ratio was defined as a Ca^2+ permeability index.

MAP2, GluA1, GluA2, DCX = assay: Immunohistochemical analysis (MAP2, GluA1, GluA2, DCX) of hippocampus; assay type: in vivo, mouse
Source text: Mouse brains were perfusion-fixed with 4% paraformaldehyde, embedded in paraffin, and cut into 4 micrometer thick sections to be used for immunohistochemical analysis of monoclonal antibodies against DCX (E-6 monoclonal, 1:50, Santa Cruz Biotechnology Inc, Dallas, USA), MAP2ab (AP-20 monoclonal, 1:100, SIGMA-ALDRICH, St. Louis, USA), GluA1 ([…] polyclonal, 1:100, EMD Millipore Corp., Burlington, USA), and GluA2 (AB 1768-1 polyclonal, 1:5, EMD Millipore Corp., Burlington, USA).
The immunostained region in each of the expression regions of MAP2, GluA1, and GluA2 was acquired using a ZVI format AxioVision (Carl Zeiss, Germany) microscope (objective lens 20×). Generation of data image processing with image segmentation was performed using machine learning with ZEN Intelliesis software. 1000 or more cells were examined in each group. One-way variance analysis was used for testing variance among the three groups excluding data of 3SD or higher. Then, the following number of samples was used.

[2] = system: hippocampus and body weight of a person; assay: Perampanel in an obese person: brain MRI, body weight, BMI; assay type: in vivo, human; details: for BMI: 26 w after surgery / 26 weeks of PER administration, before: 37.7
Method: The effect of an AMPA receptor antagonist on the hippocampus and body weight of a person with a BMI value of 38 was investigated. A person had quadriplegia and respiratory disorders due to a large foramen magnum tumor. After the tumor extraction, anti-epileptic treatment was performed. As an anti-epileptic treatment, 2 mg/day (thereafter, the dose was changed to 4 mg/day) of perampanel was orally administered. The transition of the body weight and the Fugl-meyer assessment score of the lower limb was observed. In addition, the size of the hippocampus was evaluated from MRI of the brain of the at 26 weeks after surgery.

NL-G-F(−/−) mice = assay: Hippocampus function-dependent fear conditioning test in NL-G-F(−/−) mice; assay type: in vivo, mouse; details: perampanel alone 5 mg/kg or 10 mg/kg
Method: Contextual fear conditioning was applied with slight modifications to published protocols (50). Mice were transferred to the animal experimental room and allowed to acclimatize for at least 30 minutes prior to contextual fear conditioning training. Next, the mice were placed in a foot shock system model MK-450 MSQ (Muromachi Kikai Co., Ltd., Japan), searching was performed for 2 minutes, and then 3 electric foot shocks (0.8 mA, 2 sec, 2 min interval) were performed. After mice were left in the apparatus for an additional 1 minute, the animals were removed.
NL-G-F(−/−) mice, a dementia model, were administered with memantine (mema), exercise, memantine and exercise, memantine and perampanel, and perampanel alone (5 mg/kg or 10 mg/kg), and subjected to behavioral experiments. As the behavior test, a novel object recognition test and a hippocampus function-dependent fear conditioning test were performed. Memantine is an antagonist of the NMDA receptor, but has distinct properties from other NMDA receptor antagonists (refer to Hokama Y., et al., Neuro Oncology, 2022, noac162). That is, memantine is a drug that works only when glutamic acid is excessively present in the brain.

[3] = HFD-fed mice with PER, ratio GluA2 mRNA/(GluA1+GluA3+GluA4 mRNA), N = 5

`N#Cc1ccccc1-c1cc(-c2ccccn2)cn(-c2ccccc2)c1=O` [PER, 3-(2-cyanophenyl)-5-(2-pyridyl)-1-phenyl-1,2-dihydropyridine-2-one] was tested, and the “Ca2+-permeability index CA1” value [1, 3] was 0.29 ± 0.11, the “Ca2+-permeability index CA3” value [1, 3] was 0.26 ± 0.10 and the “Ca2+-permeability index DG” value [1, 3] was 0.22 ± 0.06. For the same molecule, the “Ca2+-permeability index EC” value [1, 3] was 0.30 ± 0.05, the “Ca2+ permeability index via CA1, CA3, DG and EC” value ([1]; HFD-fed mice, PER administration, N=5) was “returned to CD-fed mouse levels” and the “GluA2 mRNA expression in CA1” value ([1]; mice fed HFD with PER, qRT-PCR, p<0.05) was “significant increase”. The “integrity of dendritic arbors in CA1 (anti-MAP2 antibody staining)” value (MAP2, GluA1, GluA2, DCX; HFD mice with PER) was “completely restored”, the “GluA2/GluA1 ratio (immunostaining)” value (MAP2, GluA1, GluA2, DCX; HFD mice with PER treatment) was “increased” and the “immunostaining reaction of GluA1 in CA1” value (MAP2, GluA1, GluA2, DCX; HFD mice with PER treatment) was “decreased”. The “double cortin positive cells” value (MAP2, GluA1, GluA2, DCX; HFD mice with PER, DG) was “increase”, the “GluA1 expression in CA1 (immunoreactive region)” value (MAP2, GluA1, GluA2, DCX; ob/ob mice with PER) was “restored” and the “ratio of GluA2/GluA1 (immunoreactive region)” value (MAP2, GluA1, GluA2, DCX; ob/ob mice with PER) was “restored”. The “integrity of the dendritic arbors (MAP2 staining)” value (MAP2, GluA1, GluA2, DCX; ob/ob mice, PER for 1 week or 12 weeks) was “significantly more restored by 12 week administration than by 1 week administration”, the “maturation of the protrusions of DCX-positive cells” value (MAP2, GluA1, GluA2, DCX; ob/ob mice, PER for 12 weeks) was “progressed” and the “body weight of the person” value ([2]; obese person after administration) was “decreased smoothly”. For the same molecule, the BMI ([2]; obese person) was 31, the BMI ([2]; obese person, listed as AMPA receptor antagonist) was 33.4 and the “gray matter/TIV” value ([2]; obese person, 26 w after surgery, oral perampanel 2 then 4 mg/day) was 0.50 L/L. For the same molecule, the “size of the hippocampus (MRI)” value ([2]; obese person, 26 weeks after surgery, PER administration) was “clearly increased” and the “cognitive function in hippocampus function-dependent fear conditioning test” value (NL-G-F(−/−) mice) was “remarkable improvement in cognitive function”.

From patent publication US20240398775A1, “PHARMACEUTICAL COMPOSITION FOR USE IN TREATING COGNITIVE DECLINE OR FOR USE IN TREATING OVERWEIGHT OR OBESITY” (University of the Ryukyus, priority 2021, published 2024)
